Legend:
Assay in all cases: relative viability (nuclei count vs DMSO), 5 days (fraction); higher = more cells survive
Ponatinib + Crizotinib = compound: Cc1ccc(C(=O)Nc2ccc(CN3CCN(C)CC3)c(C(F)(F)F)c2)cc1C#Cc1cnc2cccnn12 [Ponatinib] + C[C@@H](Oc1cc(-c2cnn(C3CCNCC3)c2)cnc1N)c1c(Cl)ccc(F)c1Cl [Crizotinib] (partner 1 µM)
Procedure, shortened: (§1)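 Lung cancer cell lines, seeded in 1536-well plates, were treated the following day by pin tool with a single drug or with five library-drug doses (not always all listed) in √10 steps on top of a fixed anchor-drug dose. Cells were fixed and nuclei stained in one step after 5 days, and nuclei were counted. Relative viability is the nuclei count for treated wells divided by that for vehicle wells, reported as medians of duplicate plates.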

Pazopanib + Tozasertib = compound: Cc1ccc(Nc2nccc(N(C)c3ccc4c(C)n(C)nc4c3)n2)cc1S(N)(=O)=O [Pazopanib] + Cc1cc(Nc2cc(N3CCN(C)CC3)nc(Sc3ccc(NC(=O)C4CC4)cc3)n2)n[nH]1 [Tozasertib] (partner 0.1 µM)
Procedure, shortened: as §1

Pazopanib + Vorinostat = compound: Cc1ccc(Nc2nccc(N(C)c3ccc4c(C)n(C)nc4c3)n2)cc1S(N)(=O)=O [Pazopanib] + O=C(CCCCCCC(=O)Nc1ccccc1)NO [Vorinostat] (partner 1 µM)
Procedure, shortened: as §1

Ponatinib + Decitabine = compound: Cc1ccc(C(=O)Nc2ccc(CN3CCN(C)CC3)c(C(F)(F)F)c2)cc1C#Cc1cnc2cccnn12 [Ponatinib] + Nc1ncn([C@H]2C[C@H](O)[C@@H](CO)O2)c(=O)n1 [Decitabine] (partner 2 µM)
Procedure, shortened: as §1

Cell Line	relative viability (Ponatinib + Crizotinib; first compound 0.002 µM)	relative viability (Ponatinib + Crizotinib; first compound 0.006325 µM)	relative viability (Ponatinib + Crizotinib; first compound 0.06325 µM)	relative viability (Ponatinib + Crizotinib; first compound 0.2 µM)	relative viability (Pazopanib + Tozasertib; first compound 0.01 µM)	relative viability (Pazopanib + Tozasertib; first compound 0.03162 µM)	relative viability (Pazopanib + Tozasertib; first compound 0.1 µM)	relative viability (Pazopanib + Tozasertib; first compound 0.3162 µM)	relative viability (Pazopanib + Tozasertib; first compound 1 µM)	relative viability (Pazopanib + Vorinostat; first compound 0.01 µM)	relative viability (Pazopanib + Vorinostat; first compound 0.03162 µM)	relative viability (Pazopanib + Vorinostat; first compound 0.1 µM)	relative viability (Pazopanib + Vorinostat; first compound 0.3162 µM)	relative viability (Pazopanib + Vorinostat; first compound 1 µM)	relative viability (Ponatinib + Decitabine; first compound 0.002 µM)	relative viability (Ponatinib + Decitabine; first compound 0.006325 µM)	relative viability (Ponatinib + Decitabine; first compound 0.06325 µM)	relative viability (Ponatinib + Decitabine; first compound 0.2 µM)
HCC-44	0.752	0.799	0.908	0.808	0.872	0.913	0.926	0.843	0.78	1.11	1.01	1.08	1.04	1.15	0.936	0.976	0.898	0.884
HCC-827	0.819	0.964	0.924	0.928	0.436	0.44	0.42	0.414	0.433	0.895	0.839	0.843	0.922	0.785	0.327	0.385	0.338	0.326
NCI-H1623	–	–	–	–	0.43	0.455	0.413	0.46	0.393	–	–	–	–	–	–	–	–	–
NCI-H2405	0.75	0.917	0.821	0.732	0.77	0.777	0.79	0.75	0.76	0.925	1.16	0.93	1.11	1.16	0.762	0.754	0.821	0.685
PC-3 [JPC-3]	0.925	1.04	1.11	0.989	0.947	0.918	0.916	0.915	0.756	–	0.79	0.597	0.973	0.93	–	0.871	0.849	0.838
NCI-H1651	0.835	0.852	0.897	0.876	0.708	0.603	0.733	0.725	0.685	0.536	0.588	0.621	0.534	0.637	0.613	0.704	0.615	0.665
HARA	0.972	1.01	0.973	1.02	0.09	0.119	0.603	0.0772	0.0838	0.475	0.424	0.605	0.438	0.605	0.486	0.632	0.568	0.665
NCI-H1650	1.03	0.939	1.17	0.821	0.47	0.382	0.443	0.539	0.312	0.654	0.615	0.605	0.59	0.704	0.328	0.653	0.449	0.324
NCI-H1793	–	–	–	–	–	0.347	0.275	0.367	0.374	–	0.753	0.637	0.811	1.11	0.451	0.526	0.561	0.499
NCI-H2347	0.694	0.885	0.668	0.688	0.45	0.586	0.607	0.593	0.588	0.522	0.593	0.736	0.587	0.83	0.663	0.571	0.614	0.605
